We go through eight compounds from publication PMC4811417, “Sulforaphane Suppresses Hepatitis C Virus Replication by Up-Regulating Heme Oxygenase-1 Expression through PI3K/Nrf2 Pathway” (PLoS ONE, 2016).

By CC50 is commonly meant the concentration giving 50% cytotoxicity. Broadly, the EC50 is the concentration needed to bring the measured effect to its halfway point. As a reminder, the IC50 is the concentration at which inhibition is half-maximal.

SMILES strings stand for the structures. Like-named read-outs stand apart in the source and are kept apart here.

Data set [1] in a line: Cell viability / cytotoxicity, MTS assay. As to conditions: human; Ava5 cells, MTS assay; read-out: Cyto-Toxicity (CC50). In kind it is cell-based. The source says: (§1) The CellTiter 96 Aqueous One Solution Cell Proliferation assay system (Promega, Madison, WI, USA), which is a colorimetric approach for the detection of the cytotoxic effect of a compound, was used to measure cell viability according to the manufacturer’s protocol. […] The absorbance values were detected at 490 nm using a 96-well plate reader (Bio-Rad, Hertfordshire, UK).
For orientation: Formazan colour is commonly taken as a measure of viable cells.

Data set [2] deals with HCV subgenomic replicon (genotype 1b) in Ava5 cells. Kind of data set: Anti-HCV activity in HCV replicon (Ava5) cells, qRT-PCR / Western blotting. In kind it is cell-based, Hepatitis C virus. As to conditions: for Selective Index (SI): CC50/EC50, Ava5 cells; for EC50: read-out: Anti-HCV activity (EC50). Here is the method: Huh-7, Huh7.5, Ava5 (harboring HCV subgenomic replicon; genotype 1b) and Huh7.5/J6/JFHEMCVIRESRlucNeo cells (harboring HCV subgenomic replicon RNA and renilla luciferase reporter gene; genotype 2a) obtained from Apath, LLC (St. Louis, MO) were routinely passaged in Dulbecco’s modified Eagle’s medium containing 10% heat-inactivated fetal bovine serum, 1% nonessential amino acids, and 1% antibiotic-antimycotic in a 37°C incubator with a humidified atmosphere containing 5% CO2. Sulforaphane (SFN), phenethyl isothiocyanate, benzyl isothiocyanate, benzyl isothiocyanate, butyl isothiocyanate, allyl isothiocyanate, and HO-1-specific inhibitor (tin protoporphyrin IX dichloride; SnPP) were obtained from Sigma Aldrich Co. (St. Louis, MO, USA). Biliverdin was obtained from MP Biomedicals, Inc (Santa Ana, CA, USA). […] Daclatasvir and telaprevir were obtained from Legend Stat International Co., Ltd (Omdurman, Sudan). Sofosbuvir was obtained from Shanghai Haoyuan Chemexpress Co., Ltd. (Shanghai, China). These compounds were stored at a concentration of 10 mM in 100% dimethyl sulfoxide (DMSO) at 4°C until use. All the reactions were performed using a final concentration of 0.1% DMSO.
(§2) Total cellular RNA extracted from cultured cells was purified using the Total RNA Miniprep Purification Kit (GMbiolab Co., Ltd, Taiwan). RNA samples were reverse transcribed into complementary DNA using the M-MLV Reverse Transcription System (Promega). Quantitative real-time polymerase chain reaction (qRT-PCR) was performed to assess the relative levels of gene expression using the ABI Step One Real-Time PCR-System (ABI Warrington, UK). Glyceraldehydes-3-phosphate dehydrogenase (gapdh) gene expression was used as the endogenous control for normalization in all qRT-PCR analyses. Relative expression was calculated using the comparative Ct method. Absolute quantitation of HCV RNA copies was calculated and determined relative to standard curves comprised of serial dilution of expression plasmids containing the coding sequence of HCV NS5B using RT-qPCR. The primer sequences primers for qRT-PCR were used as previously described (Table 1).
(§3) Western blotting was performed as previously described. Proteins from cell lysates were separated using SDS-PAGE and transferred onto PVDF membranes. The membranes were blocked with 5% nonfat milk in phosphate-buffered saline containing Tween 20 (PBST) and incubated overnight at 4°C with primary antibodies against GAPDH (1:10,000; GeneTex, CA, USA), NS5B (1:5,000; Abcam, Cambridge, MA, USA), Nrf2 (1:3,000; GeneTex), HO-1 (1:3,000; GeneTex), biliverdin reductase A (BVRA), Keap1 and Bach1 (1:1,000; Abcam), and total-phohphoinositide 3-kinase (PI3K) or phosphor-PI3K (1:1000; Cell Signaling Technology, Inc., Beverly, MA, USA). The immunoreactive blot signals were detected using the enhanced chemiluminescence Western blotting reagent (Perkin-Elmer, CT, USA).
To investigate the anti-HCV activity of SFN and its analogs (Fig 1A), Huh-7-derived Ava5 cells that harbor an HCV subgenomic RNA replicon were treated with increasing concentrations of SFN for 3 days. The anti-HCV activity and cytotoxicity of SFN and its analogs were analyzed by qRT-PCR and MTS assay, respectively. […] Moreover, the anti-HCV replication activity of SFN was analyzed by Western blotting and qRT-PCR.
Background: A replicon is a self-replicating genome or part of one, used to study replication in cells.

Data set [3] relates to HCV subgenomic replicon in Ava5 cells. Kind of data set: Combination of SFN with antiviral drugs in replicon cells (CalcuSyn2, Chou and Talalay). In kind it is cell-based, Hepatitis C virus. The conditions noted are these: for CI values at ED75 / CI values at ED90: fixed ratio, 3 days. The method, then: (§4) The anti-HCV activities of the different combinations were determined by qRT-PCR. The drug combination data were analyzed using CalcuSyn2™ software (Biosoft, Cambridge, UK) based on the method by Chou and Talalay. The multiple drug dose effects and combination index (CI) values were evaluated and presented as antagonism (CI > 1), additivity (CI = 1) or synergism (CI < 1).

The test system of data set [4] is JFH-1 virus particle-infected Huh-7 cells. Kind of data set: Combination of SFN with antiviral drugs in HCV-infected cells (CalcuSyn2, Chou and Talalay). In kind it is cell-based, Hepatitis C virus. The conditions noted are these: JFH-1-infected Huh-7 cells; for CI values at ED75 / CI values at ED90: fixed ratio, 3 days. The method, then:
as §4

For data set [5], the system named is IFN response (IFN-α, ISRE, OAS1, OAS2, OAS3, PKR). The method, then: as §2
For another data set, the system named is Nrf2/ARE. Kind of data set: ARE transactivation and Nrf2 expression in Ava5 cells (p3xARE-Luc, Western blotting).
In a further data set the test system is Ava5 cells. The experiment in a line: Cell viability / cytotoxicity, MTS assay. In kind it is cell-based. As to conditions: at doses where viral replication was inhibited.
Description: as §1

Another data set has as its system HO-1. As to conditions: Ava5 cells, 0–10 μM, 3 days. Here is the method: as §2
Western blotting was performed as previously described. Proteins from cell lysates were separated using SDS-PAGE and transferred onto PVDF membranes. […] The immunoreactive blot signals were detected using the enhanced chemiluminescence Western blotting reagent (Perkin-Elmer, CT, USA).

In another data set the test system is PI3K. The conditions noted are these: Ava5 cells, 7.5 μM SFN, 15 min after treatment. Here is the method:
as §3

The subject of data set [6] is HCV JFH-1 in Huh7.5 cells.
Description: The effect of SFN on HCV entry was determined according to previously described methods [22]. Briefly, Huh7.5 cells were infected with JFH-1 and treated with SFN for 1 hour at 37°C (endocytosis/fusion period). Finally, cells were washed and incubated in complete culture medium at 37°C for 45 hours. Subsequently, the cells were collected to quantify intracellular HCV RNA copy numbers. The effect of SFN on assembly and secretion were determined according to previously described methods [23]. The Huh7.5 cells were infected with JFH-1 and treated with indicated concentration of SFN. The viral supernatants and cell pellets were collected at 3 days postinfection for virus titration by qRT-PCR.
(A) Huh7.5 cells were infected with JFH-1 and treated with SFN for 1 hr at 37°C and then the infectecells were washed and incubated in complete culture medium. The intracellular HCV RNA copy numbers were quantified by qRT-PCR. The treatment of heparin served as positive control for the inhibition of HCV entry. The relative HCV entry were presented as percentage changes compared to the SFN-untreated cells, which were considered as 100%. (B) Huh7.5 cells were infected with JFH-1 and then treated with SFN for 72 hrs. The supernatant and cell lysate were collected and the HCV RNA copy numbers were quantified by qRT-PCR.
The conditions of data set [7]: rats, oral dosing of 50 μmol of SFN, cited from earlier work.
The target of the next data set is HCV NS3/4A protease (Hepatitis C virus genotype 1b, UniProt Q9WMX2). As to conditions: Huh-7 cells, 0–10 μM, 3 days, compared to untreated controls; restored with SnPP.
Data set [8] concerns HCV JFH-1 (genotype 2a) in Huh-7 cells. As to conditions: JFH-1-infected Huh-7 cells, 3 days. The method, then:
HCV infectious particles (JFH-1; genotype 2a) were produced as previously described. HCV infection assay was used to determine the antiviral effect of SFN. Huh-7 cells were seeded in 24-well plates at a density of 5 × 10^4 cells per well and were infected with HCV for 6 h at a multiplicity of infection (MOI) of 0.1. The HCV-infected cells were treated with different concentrations (0–10μM) of SFN and incubated for 3 days, following which total RNA samples were extracted and subjected to qRT-PCR analysis for the quantification of HCV replication.

The next data set relates to bilirubin / BVR. The conditions noted are these: Ava5 cells, 3 days.
Where [9] appears, read: Hepatitis C virus, 72 h, Ava5 cells, 3 days, HCV RNA levels by qRT-PCR.

HCV NS3/4A protease, sequence (Q9WMX2 1027-1657): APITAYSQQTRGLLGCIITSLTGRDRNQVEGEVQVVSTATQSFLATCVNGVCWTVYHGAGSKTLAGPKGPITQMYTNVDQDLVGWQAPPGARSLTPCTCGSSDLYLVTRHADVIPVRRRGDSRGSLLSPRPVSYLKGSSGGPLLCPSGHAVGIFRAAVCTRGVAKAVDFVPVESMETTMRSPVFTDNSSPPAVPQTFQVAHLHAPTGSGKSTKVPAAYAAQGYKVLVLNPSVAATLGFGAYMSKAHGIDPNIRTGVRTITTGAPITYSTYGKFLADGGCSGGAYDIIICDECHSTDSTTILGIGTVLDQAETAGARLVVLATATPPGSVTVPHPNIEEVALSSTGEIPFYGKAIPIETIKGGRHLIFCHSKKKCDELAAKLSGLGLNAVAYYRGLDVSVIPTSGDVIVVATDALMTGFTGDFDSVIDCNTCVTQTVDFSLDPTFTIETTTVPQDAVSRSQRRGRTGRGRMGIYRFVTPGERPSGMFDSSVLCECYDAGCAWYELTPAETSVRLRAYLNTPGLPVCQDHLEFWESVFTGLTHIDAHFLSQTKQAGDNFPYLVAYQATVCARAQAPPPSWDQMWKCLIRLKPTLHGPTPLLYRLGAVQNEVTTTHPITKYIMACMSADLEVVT
HCV NS3/4A protease, sequence (Q9WMX2 1658-1711): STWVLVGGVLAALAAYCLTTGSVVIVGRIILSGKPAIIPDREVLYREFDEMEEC
Description for HCV NS3/4A protease: The supernatants were harvested for measurement of SEAP activity by Phospha-Light assay kit (Tropix, Bedford, UK).
The culture supernatants were harvested and the SEAP activity was analyzed by Phospha-Light assay kit. Telaprevir (1 μM) and biliverdin (100 μM) served as positive controls for anti-HCV protease activity. The relative SEAP activities were presented as fold changes compared to untreated cells, in which as the activity was considered to be 1.
Description for bilirubin / BVR: Intracellular bilirubin level was quantified as previously described [24]. Cells were seeded in 6-well plates at a density of 4 × 10^5 cells per well and treated with SFN at indicated concentrations for 3 days. Cell lysates were harvested and the amount of bilirubin was quantified using Calibrator for Automated Systems (c.f.a.s) (Roche Diagnostics Ltd., South San Francisco, CA, USA) and MeDiPro direct bilirubin test kit (Formosa Biomedical Technology Corp., Taipei, Taiwan). The absorbance values at 546 and 660 nm were measured using the Epoch microplate spectrophotometer (BioTek Instruments, Inc., Winooski, VT, USA).
The parental Huh-7 cells were used to determine basal bilirubin levels. […] Ava5 cells were treated with the indicated concentrations of SFN for 3 days. The expression of BVR was analyzed by qRT-PCR and Western blotting using specific primers and antibodies for BVR and GAPDH, respectively. GAPDH expression was used as protein loading control.

For `C=CCN=C=S` [Allyl isothiocyanate, allyl isothiocyanate], in data set [1], the CC50 at 3 days is 33 ± 3 µM. In addition, in data set [2], the “Selective Index (SI)” value is reported as 1.5. In addition, the EC50 in data set [2] (setting [9]) was 20 ± 2 µM.
Turning to `S=C=NCc1ccccc1` [Benzyl isothiocyanate, benzyl isothiocyanate], the CC50 at 3 days in [1] was determined as 67 ± 2 µM. In addition, the “Selective Index (SI)” value in [2] was determined as 3. For the same compound, the EC50 in data set [2] (setting [9]) turned out to be 20 ± 2 µM.
Turning to `CCCCN=C=S` [Butyl isothiocyanate, butyl isothiocyanate], in data set [1], the CC50 at 3 days was 95 ± 6 µM.
`COC(=O)N[C@H](C(=O)N1CCC[C@H]1c1nc(-c2ccc(-c3ccc(-c4c[nH]c([C@@H]5CCCN5C(=O)[C@@H](NC(=O)OC)C(C)C)n4)cc3)cc2)c[nH]1)C(C)C` [Daclatasvir]: in data set [3], the Influence result is “Synergistic”, the “CI values at ED75” value is recorded as 0.5 and the “CI values at ED90” value is 0.4. Further, in data set [4], the Influence entry is given as “Synergistic”, the “CI values at ED75” value was 0.5 and the “CI values at ED90” value is reported as 0.4.
On to `S=C=NCCc1ccccc1` [Phenethyl isothiocyanate, phenethyl isothiocyanate], for which the CC50 at 3 days in [1] came out at 10 ± 1.5 µM. Also, in data set [2] (Hepatitis C virus, Ava5, 72 h), the EC50 worked out at 2.5 ± 0.5 µM.
Regarding `CC(C)OC(=O)[C@H](C)N[P@](=O)(OC[C@H]1O[C@@H](n2ccc(=O)[nH]c2=O)[C@](C)(F)[C@@H]1O)Oc1ccccc1` [Sofobuvir, sofosbuvir], in [3], the Influence entry is “Synergistic”, the “CI values at ED75” value is listed as 0.5 and the “CI values at ED90” value is 0.4. Besides, in data set [4], the Influence entry was “Synergistic”, the “CI values at ED75” value was 0.5 and the “CI values at ED90” value was 0.4.
As to `C[S+]([O-])CCCCN=C=S` (stereo not shown) [Sulforaphane], the “IFN-α2 and IFN-α17 expression” value in data set [5] (Ava5 cells, 3 days, qRT-PCR, attenuated with SnPP) is recorded as “significantly induced”. Moreover, the “IFN-α levels in culture supernatants” value in [5] (Ava5 cells, ELISA, effective antiviral concentrations, attenuated by SnPP) is listed as “significantly increased”. Besides, the “expression of IFN response genes (OAS1, OAS2, OAS3, PKR)” value in data set [5] (Ava5 cells, qRT-PCR, attenuated by SnPP) is recorded as “significantly induced”. Further, the ISRE-mediated luciferase activity result in data set [5] (pISRE-Luc-transfected Ava5 cells, 3 days, attenuated with SnPP) is recorded as “significant induction”. The “protein levels of Keap1 and Bach1” value in the data set with Nrf2/ARE (Ava5 cells) is listed as “did not observe significant changes”. Further, in the data set with Nrf2/ARE (Ava5 cells, concentration-dependent), the “expression of Nrf2 in cytoplasmic and nuclear fractions” value is “significant increase”. Besides, the ARE-mediated luciferase activity result in the data set with Nrf2/ARE (p3xARE-Luc-transfected Ava5 cells, 3 days, effective antiviral concentrations) is “significantly increased”. The CC50 at 3 days in data set [1] was 52 ± 3 µM. In addition, the “cytotoxicity (cell viability by MTS assay)” value in the data set with Ava5 cells is recorded as “did not induce significant cytotoxicity”. For the same compound, the “HO-1 RNA and protein levels” value in the data set with HO-1 was “significantly increased”. Besides, the “phosphorylation of PI3K” value in the data set on PI3K is on record as “significantly induced”. The “inhibition of viral replication” value in data set [2] (10 μM SFN, Ava5 cells, 3 days, compared to SFN-untreated cells) turned out to be 90%. Moreover, the “HCV protein synthesis and RNA replication” value in [2] (Ava5 cells, 0–10 μM, 3 days, concentration-dependent) was “significantly reduced”. In addition, in data set [2], the “Selective Index (SI)” value is listed as about 10. In addition, in data set [2] (Hepatitis C virus, Ava5, 72 h), the EC50 worked out at 5 ± 1.5 µM. In addition, in [2] (Hepatitis C virus, Ava5, HCV replicon cells and infectious system, read-out: IC50 value, suppression of HCV protein and RNA levels), the IC50 turned out to be 5.7 ± 0.2 µM. In addition, the “inhibition on viral entry” value in data set [6] (Huh7.5 cells infected with JFH-1, SFN 1 hour) was “no significant inhibition”. In data set [6] (Huh7.5 cells infected with JFH-1, SFN 3 days), the “inhibition on viral assembly” value was “no significant inhibition”. The plasma concentration entry in [7] (reached within 4h) is recorded as “around 20 μM”. Further, in data set [7], the elimination half-life is on record as 2.2 h and the “time at which plasma concentration of SFN occurred” value is recorded as 1 h. Besides, at HCV NS3/4A protease, the “HCV protease activity (SEAP)” value is “significantly decreased”. For the same compound, the “antiviral activity in the HCV JFH-1 infection system” value in data set [8] is reported as “exhibited antiviral activity”. In addition, the bilirubin levels entry with bilirubin / BVR (0–10 μM) is given as “significant increase”. The “BVR RNA or protein levels” value in the data set on bilirubin / BVR is reported as “did not detect any significant changes”.
On to `CCC[C@H](NC(=O)[C@@H]1[C@H]2CCC[C@H]2CN1C(=O)[C@@H](NC(=O)[C@@H](NC(=O)c1cnccn1)C1CCCCC1)C(C)(C)C)C(=O)C(=O)NC1CC1` [Telapriver, telaprevir], for which, in data set [3], the Influence entry is given as “Synergistic”, the “CI values at ED75” value is reported as 0.7 and the “CI values at ED90” value is recorded as 0.6. Moreover, in [4], the Influence result is listed as “Synergistic”, the “CI values at ED75” value is recorded as 0.6 and the “CI values at ED90” value was 0.5.
